The test system of experiment [1] is VSMCs. The experiment in a line: Hypoxia (CoCl2) induced oxidative stress in VSMCs (DCFDA). In kind it is cell-based. How it is done:
This study was performed to determine whether intracellular oxidative stress in VSCMs is derived from mitochondrial dysfunction. To perform this study, VSMCs were incubated with cobalt chloride, a known stabilizer of HIF1a. Cobalt chloride binding to HIF1a prevents the degradation of HIF1a and thus results in a cellular hypoxia state. HIF1a has been implicated in cancer biology as well as a number of other pathophysiologies, specifically in areas of vascularization and angiogenesis, energy metabolism, cell survival, and tumor invasion. Under normal circumstances, after injury, HIF1a is degraded by the enzyme prolyl hydroxylase (PHD). The continued up-regulation of HIF1 a (mimicked by cobalt chloride) promotes tumor growth and metastasis through its role in initiating angiogenesis and regulating cellular metabolism to overcome hypoxia. Hypoxia promotes apoptosis in both normal and tumor cells. Additionally, hypoxia generates significant intracellular oxidative stress.
To perform the study, VSMCs (10,000 cells/well) were plated in a 96-well plate and left to adhere overnight. Next, the medium was changed to a medium supplemented with 50 μM CoCl2 for 19 hours. The next day, cells were washed and incubated for 1 hour with 20 μM DCFDA in the presence of a vehicle (solvent for CoCl2 and vitamin K2 (MK-7)/UQ10), 10 μM vitamin K2 (MK-7), or 10 μM UQ10 in medium. The medium was then changed to a medium supplemented with vehicle, vitamin K2 (MK-7)/UQ10, or CoCl2, and fluorescent was measured for 6 hours. Fluorescence intensity was normalized for cell count.

In experiment [2] the test system is transgenic Ren-2 rats [TGR(mREN-2)27]. The experiment in a line: T-TAS thrombus formation in whole blood of treated TGR (Ren-2) rats. The experiment is classed as in vivo, rat. How it is done: This experiment was conducted in order to evaluate the effects of vitamin K2 (MK-7) on the anticoagulant activity of the new oral anticoagulants (NOAC) rivaroxaban and dabigatran using the T-TAS Total Thrombus-formation Analysis System. The T-TAS Total Thrombus-formation Analysis System is a microchip-based flow chamber system capable of evaluating whole-blood thrombogenicity. It is a useful tool in monitoring the efficacy of anticoagulants on thrombus formation and predicting the risk of bleeding complications. […] Four days before the start of the treatment, the first part of animals' body weight and food intake was measured in selected representative three cages (rats n=9) to calculate the appropriate amount of tested compounds required for addition to the diet to obtain the dosing indicated in Table 1. […] The body mass of the rats was measured at the beginning and at the end of treatment. At the beginning and at the end of treatment, the food intake per day was measured in representative group of animals to monitor the daily dosing of tested compounds (per kg of body mass). The thrombus formation in vitro was measured in whole blood using a microchip-based flow chamber system according to manufacturers' protocol (Total Thrombus-formation Analyser System, T-TAS; Fujimori Kogyo Co., Ltd., Tokyo, Japan). […]

Another experiment deals with Sprague-Dawley rats. The experiment in a line: T-TAS thrombus formation in whole blood of treated Sprague-Dawley rats. The experiment is classed as in vivo, rat. The procedure: This experiment was conducted in order to evaluate the effects of vitamin K2 (MK-7) on the anticoagulant activity of the new oral anticoagulants (NOAC) rivaroxaban and dabigatran using the T-TAS Total Thrombus-formation Analysis System. The T-TAS Total Thrombus-formation Analysis System is a microchip-based flow chamber system capable of evaluating whole-blood thrombogenicity. It is a useful tool in monitoring the efficacy of anticoagulants on thrombus formation and predicting the risk of bleeding complications. To perform the study, 45 wild-type male Sprague-Dawley and 45 transgenic male Ren-2 rats [TGR(mREN-2)27] at the age of 10-11 weeks at the beginning of the treatment period were purchased from animal facility IKEM-CEM Institute of Clinical and Experimental Medicine (Prague, Czech Republic). All animals in the experiment were housed in individually ventilated cages (2-3 rats per cage) and kept in the animal rooms of JCET at a relative humidity of 55±10%, a temperature of 22±2 ° C., and a light cycle of 7 AM to 7 PM. The rats had free access to food and water. After delivery, animals were randomly divided into 10 experimental groups (5 or 10 rats per group), as indicated below in Table 1. Four days before the start of the treatment, the first part of animals' body weight and food intake was measured in selected representative three cages (rats n=9) to calculate the appropriate amount of tested compounds required for addition to the diet to obtain the dosing indicated in Table 1. It was estimated that food intake was approximately 30 g of chow per rat per day. […] The body mass of the rats was measured at the beginning and at the end of treatment. At the beginning and at the end of treatment, the food intake per day was measured in representative group of animals to monitor the daily dosing of tested compounds (per kg of body mass). The thrombus formation in vitro was measured in whole blood using a microchip-based flow chamber system according to manufacturers' protocol (Total Thrombus-formation Analyser System, T-TAS; Fujimori Kogyo Co., Ltd., Tokyo, Japan). […]

Experiment [3] has as its system VSMCs. In words: ATP increase, 24 h incubation (luminescence). The experiment is classed as cell-based. Conditions: 10 μM, p=0.014 for MK-7. How it is done: This study was performed to determine if vitamin K2 (MK-7) affects ATP generation. ATP is generated via glycolysis in the cytoplasm and via both the Krebs-cycle and oxidative phosphorylation in the mitochondria. ATP generation via glycolysis delivers only 2 ATP, whereas ATP generation in the mitochondria generates some 32 ATP.
(§1) To perform this study, VSCMs (5000 cells/well) were plated in 96-well plates and left to adhere overnight. Next, cells were incubated for 24 hours with either vehicle, vitamin K2 (MK-7) (10 μM), or UQ10 (10 μM). Hoechst was added to correct for cell number (1 μg/mL). Next, ATP was measured using mammalian lysis buffer for 5 minutes after which 50 μL ATP substrate solution was added to the wells and incubated for 10 minutes in a dark environment. Finally, the medium was transferred to a white plate to measure luminescence

For experiment [4], the system named is VSMCs. The experiment in a line: ATP increase, 48 h incubation with CoCl2 comparison (luminescence). The experiment is classed as cell-based. As to conditions: 10 μM, vs CoCl2 100 μM. How it is done:
as §1, with “This study was performed to further investigate the origin of ATP production that is influenced by vitamin K2 (MK-7). To” for “To”, “for 48” for “for 24”, “vehicle, CoCl2 (100 μM),” for “vehicle,”, “5 minutes,” for “5 minutes”, “Finally,” for “Finally, the”, “measure luminescence.” for “measure luminescence”

Experiment [5] relates to VSMCs. In words: Warfarin-induced oxidative stress in VSMCs, warfarin concentration series (DCFDA). The experiment is classed as cell-based. Conditions: warfarin 10 to 100 μM, 6 hours. How it is done: It is known that the level of reactive oxygen species in cells can be measured by measuring the conversion of 2′,7′—dichlorofluorescein diacetate (DCFDA) to the fluorescent dye 2′,7′-dichlorofluorescein (DCF). The fluorescence generated by cells subjected to DCFDA is directly proportional to the amount of oxidized DCFDA to DCF.
In this study, vitamin K metabolism was blocked using the vitamin K-antagonist warfarin. The study was conducted to investigate whether interference with vitamin K metabolism would cause intracellular oxidative stress. To perform the study, VSMCs (10,000 cells/well) were plated in 96-well plates and left to adhere overnight. Next, cells were incubated for 1 hour with 20 μM DCFDA.
The medium was then changed to a medium supplemented with different concentrations of warfarin ranging from 10 to 100 μM, and fluorescence intensity was measured over 6 hours. Fluorescence was normalized for number of cells.

Each structure is given as a SMILES string. “Also recorded” adds a separate entry of the source.

In the case of `[Cl][Co][Cl]` [CoCl2, cobalt chloride], the “oxidative stress induced by cobalt chloride” value with VSMCs [1] (50 μM CoCl2) is given as “induces increased oxidative stress”. As for `O=C(NC[C@H]1CN(c2ccc(N3CCOCC3=O)cc2)C(=O)O1)c1ccc(Cl)s1` [Rivaroxaban, rivaroxaban, reference compound], the thrombus formation entry in experiment [2] was “also inhibited thrombus formation”; in the experiment with Sprague-Dawley rats it was “inhibited thrombus formation”. Turning to `COC1=C(OC)C(=O)C(C/C=C(\C)CC/C=C(\C)CC/C=C(\C)CC/C=C(\C)CC/C=C(\C)CC/C=C(\C)CC/C=C(\C)CC/C=C(\C)CC/C=C(\C)CCC=C(C)C)=C(C)C1=O` [UQ10, reference compound], in the experiment with VSMCs [3], the “ATP production in VSMCs compared to the vehicle” value was “only vitamin K2 (MK-7) increased ATP production in VSMCs significantly”. Further, the “ATP levels compared to CoCl2” value with VSMCs [4] is “significant higher ATP levels”. For the same molecule, the “hypoxia induced oxidative stress (counteraction)” value in the experiment on VSMCs [1] (10 μM, after 50 μM CoCl2 for 19 hours) is reported as “This effect was not found”.

For the molecule `CC(=O)CC(c1ccccc1)c1c(O)c2ccccc2oc1=O` (stereo not shown) [warfarin], the “intracellular oxidative stress caused by warfarin” value with VSMCs [5] was “did cause intracellular oxidative stress; also recorded: results in increased intracellular oxidative stress”.

The values are drawn from patent publication US20220160652A1, “USE OF VITAMIN K IN COMBINATION WITH ANTICOAGULANTS” (KAYDENCE PHARMA AS, priority 2019, published 2022).
